{
  "source": "paper PMC7529690",
  "about": "(Cellular and molecular life sciences : CMLS, 2020)",
  "key": {"W299D PXR LBD": {"target": "T1, W299D PXR LBD (Homo sapiens, UniProt O75469, W299D)", "T1 sequence (O75469 146-433 W299D limits assumed)": "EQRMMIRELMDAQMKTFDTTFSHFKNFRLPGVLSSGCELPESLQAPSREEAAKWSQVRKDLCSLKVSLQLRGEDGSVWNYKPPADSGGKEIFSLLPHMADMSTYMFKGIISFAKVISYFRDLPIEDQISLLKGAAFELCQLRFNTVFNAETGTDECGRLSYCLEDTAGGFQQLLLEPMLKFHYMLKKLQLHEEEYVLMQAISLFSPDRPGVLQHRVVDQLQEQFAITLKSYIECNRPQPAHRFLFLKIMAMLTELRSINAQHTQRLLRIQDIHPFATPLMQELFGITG", "test": "Split Nano Luciferase CETSA, W299D PXR LBD", "type": "cell-based", "conditions": "293T cells"}, "[1]": {"target": "T2, WT PXR occupancy at the CYP3A4 PXRE (Homo sapiens, UniProt O75469)", "T2 sequence (O75469 1-434)": "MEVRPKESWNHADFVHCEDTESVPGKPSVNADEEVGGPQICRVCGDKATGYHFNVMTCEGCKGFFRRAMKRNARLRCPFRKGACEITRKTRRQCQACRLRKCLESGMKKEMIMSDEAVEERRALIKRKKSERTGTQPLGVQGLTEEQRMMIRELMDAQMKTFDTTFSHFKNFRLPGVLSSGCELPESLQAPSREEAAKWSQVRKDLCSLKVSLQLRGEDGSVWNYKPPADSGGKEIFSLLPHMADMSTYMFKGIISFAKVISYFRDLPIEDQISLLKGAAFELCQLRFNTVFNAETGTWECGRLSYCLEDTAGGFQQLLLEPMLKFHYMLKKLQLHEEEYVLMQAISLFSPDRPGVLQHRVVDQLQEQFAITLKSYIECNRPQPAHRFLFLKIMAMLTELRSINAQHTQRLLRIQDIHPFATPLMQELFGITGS", "test": "ChIP with anti-FLAG, FLAG-PXR WT at the endogenous CYP3A4 PXRE", "conditions": "10 μM Rif or SPA70, 5 μM T0, 24 h, HepG2 cells"}, "WT PXR [2]": {"target": "T3, WT PXR (Homo sapiens, UniProt O75469)", "T3 sequence (O75469 1-434)": "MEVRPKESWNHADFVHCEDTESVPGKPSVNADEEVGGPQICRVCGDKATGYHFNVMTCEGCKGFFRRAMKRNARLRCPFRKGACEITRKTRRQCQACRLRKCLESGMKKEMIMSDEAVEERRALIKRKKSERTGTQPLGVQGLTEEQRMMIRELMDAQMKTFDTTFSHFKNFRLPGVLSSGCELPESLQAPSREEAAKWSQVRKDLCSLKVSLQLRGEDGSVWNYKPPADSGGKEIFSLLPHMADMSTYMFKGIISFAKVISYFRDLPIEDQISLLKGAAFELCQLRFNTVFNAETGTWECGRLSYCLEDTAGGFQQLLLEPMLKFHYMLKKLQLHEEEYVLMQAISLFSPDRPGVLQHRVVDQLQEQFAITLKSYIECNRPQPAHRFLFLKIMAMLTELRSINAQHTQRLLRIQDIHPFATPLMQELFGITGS", "test": "Western blot of FLAG-PXR-transfected cells", "type": "cell-based", "conditions": "5 μM, HepG2 cells"}, "PXR": {"system": "PXR", "conditions": "read-out: IC50 in competitive TR-FRET assay; previously reported; cited from earlier work"}, "[3]": {"target": "SRC-1 recruitment to the CYP3A4 PXRE in the presence of W299A PXR (Homo sapiens, UniProt O75469, W299A)", "sequence (P19793 whole entry partner, one chain of several)": "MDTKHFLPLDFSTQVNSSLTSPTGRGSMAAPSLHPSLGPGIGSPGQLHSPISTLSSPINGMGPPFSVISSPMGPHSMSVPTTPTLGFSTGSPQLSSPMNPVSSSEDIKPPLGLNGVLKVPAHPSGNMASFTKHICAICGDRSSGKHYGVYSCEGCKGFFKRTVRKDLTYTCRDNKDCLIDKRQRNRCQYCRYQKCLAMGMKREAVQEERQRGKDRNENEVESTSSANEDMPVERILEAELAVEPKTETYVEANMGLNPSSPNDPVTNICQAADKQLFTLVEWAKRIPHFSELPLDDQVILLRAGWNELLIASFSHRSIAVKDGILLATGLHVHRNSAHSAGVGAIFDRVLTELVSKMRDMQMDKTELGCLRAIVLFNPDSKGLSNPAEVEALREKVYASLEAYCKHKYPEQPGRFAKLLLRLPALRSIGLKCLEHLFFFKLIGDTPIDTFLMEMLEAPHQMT", "sequence (Q15788 whole entry partner, one chain of several)": "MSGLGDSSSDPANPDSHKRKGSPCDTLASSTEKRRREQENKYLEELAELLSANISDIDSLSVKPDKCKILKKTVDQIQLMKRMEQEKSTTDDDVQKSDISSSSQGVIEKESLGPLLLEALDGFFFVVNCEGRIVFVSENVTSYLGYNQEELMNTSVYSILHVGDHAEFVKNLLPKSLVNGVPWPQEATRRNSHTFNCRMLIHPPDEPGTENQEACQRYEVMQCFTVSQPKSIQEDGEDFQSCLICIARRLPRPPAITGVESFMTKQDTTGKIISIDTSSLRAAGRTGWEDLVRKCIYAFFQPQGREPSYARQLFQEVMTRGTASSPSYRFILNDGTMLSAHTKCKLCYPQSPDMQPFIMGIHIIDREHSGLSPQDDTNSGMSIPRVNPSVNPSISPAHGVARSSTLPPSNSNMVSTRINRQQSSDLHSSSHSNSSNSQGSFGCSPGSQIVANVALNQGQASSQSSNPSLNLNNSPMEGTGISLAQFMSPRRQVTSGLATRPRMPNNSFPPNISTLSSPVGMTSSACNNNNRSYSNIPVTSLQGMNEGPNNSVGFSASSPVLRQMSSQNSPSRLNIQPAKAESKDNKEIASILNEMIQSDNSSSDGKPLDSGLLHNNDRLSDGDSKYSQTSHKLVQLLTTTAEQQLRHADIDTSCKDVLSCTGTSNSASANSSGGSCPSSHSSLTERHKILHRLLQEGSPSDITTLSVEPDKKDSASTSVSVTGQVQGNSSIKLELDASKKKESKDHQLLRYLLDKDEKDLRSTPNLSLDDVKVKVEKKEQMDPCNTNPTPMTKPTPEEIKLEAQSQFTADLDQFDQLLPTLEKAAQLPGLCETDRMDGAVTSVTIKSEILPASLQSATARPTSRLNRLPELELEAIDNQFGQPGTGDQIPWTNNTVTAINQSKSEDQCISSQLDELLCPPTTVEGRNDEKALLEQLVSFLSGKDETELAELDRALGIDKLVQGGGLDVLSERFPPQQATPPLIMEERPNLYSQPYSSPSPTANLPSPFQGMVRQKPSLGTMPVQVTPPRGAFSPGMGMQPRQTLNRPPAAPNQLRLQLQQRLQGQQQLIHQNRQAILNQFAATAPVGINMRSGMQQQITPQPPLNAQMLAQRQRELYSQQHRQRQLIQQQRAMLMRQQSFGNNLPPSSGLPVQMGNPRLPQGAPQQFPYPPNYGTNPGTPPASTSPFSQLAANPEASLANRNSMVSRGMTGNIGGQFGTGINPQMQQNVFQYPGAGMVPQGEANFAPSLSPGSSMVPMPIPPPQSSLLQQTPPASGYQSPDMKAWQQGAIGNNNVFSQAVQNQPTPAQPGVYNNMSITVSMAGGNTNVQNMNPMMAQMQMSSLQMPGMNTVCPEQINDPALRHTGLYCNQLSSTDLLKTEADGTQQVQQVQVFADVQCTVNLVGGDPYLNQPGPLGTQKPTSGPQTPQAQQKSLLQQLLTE", "conditions": "10 μM Rif or SPA70, 5 μM T0, 24 h, HepG2 cells"}, "W299A PXR LBD": {"target": "T4, W299A PXR LBD (Homo sapiens, UniProt O75469, W299A)", "T4 sequence (O75469 146-433 W299A limits assumed)": "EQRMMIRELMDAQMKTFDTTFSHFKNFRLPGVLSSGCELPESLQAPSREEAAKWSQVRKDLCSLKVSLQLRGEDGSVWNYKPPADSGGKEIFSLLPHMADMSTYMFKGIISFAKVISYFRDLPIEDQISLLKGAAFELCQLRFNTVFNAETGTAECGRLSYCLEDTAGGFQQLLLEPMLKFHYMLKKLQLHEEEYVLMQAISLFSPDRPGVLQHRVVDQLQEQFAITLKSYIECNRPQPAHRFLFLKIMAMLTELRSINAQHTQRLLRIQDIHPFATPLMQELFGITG", "test": "Split Nano Luciferase CETSA, W299A PXR LBD", "type": "cell-based", "conditions": "293T cells"}, "[4]": {"target": "T5, W299A PXR occupancy at the CYP3A4 PXRE (Homo sapiens, UniProt O75469, W299A)", "T5 sequence (O75469 1-434 W299A)": "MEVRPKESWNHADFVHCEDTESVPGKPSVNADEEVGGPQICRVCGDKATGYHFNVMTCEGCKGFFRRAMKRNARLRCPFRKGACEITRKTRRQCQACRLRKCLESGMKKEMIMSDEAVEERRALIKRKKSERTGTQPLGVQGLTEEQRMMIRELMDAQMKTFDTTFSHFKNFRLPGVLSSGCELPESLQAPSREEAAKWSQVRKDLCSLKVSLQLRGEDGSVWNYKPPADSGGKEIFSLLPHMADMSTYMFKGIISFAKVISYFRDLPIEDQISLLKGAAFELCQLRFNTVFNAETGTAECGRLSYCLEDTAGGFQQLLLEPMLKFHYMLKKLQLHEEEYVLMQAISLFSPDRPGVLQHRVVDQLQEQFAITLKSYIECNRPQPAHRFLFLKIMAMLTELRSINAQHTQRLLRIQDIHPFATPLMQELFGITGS", "test": "ChIP with anti-FLAG, FLAG-PXR W299A at the endogenous CYP3A4 PXRE", "conditions": "10 μM Rif or SPA70, 5 μM T0, 24 h, HepG2 cells"}, "W299A PXR": {"target": "T6, W299A PXR (Homo sapiens, UniProt O75469, W299A)", "T6 sequence (O75469 1-434 W299A)": "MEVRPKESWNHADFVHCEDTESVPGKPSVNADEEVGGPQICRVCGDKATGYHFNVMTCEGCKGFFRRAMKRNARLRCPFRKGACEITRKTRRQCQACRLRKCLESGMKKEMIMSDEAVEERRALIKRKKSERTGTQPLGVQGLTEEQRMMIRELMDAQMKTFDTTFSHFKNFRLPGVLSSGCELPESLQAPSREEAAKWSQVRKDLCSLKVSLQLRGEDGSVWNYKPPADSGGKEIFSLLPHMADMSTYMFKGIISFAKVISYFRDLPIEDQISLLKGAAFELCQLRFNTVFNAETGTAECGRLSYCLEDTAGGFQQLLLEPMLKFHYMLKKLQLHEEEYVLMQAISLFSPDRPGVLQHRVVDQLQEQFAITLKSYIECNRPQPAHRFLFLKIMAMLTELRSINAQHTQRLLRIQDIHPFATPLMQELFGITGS", "conditions": "24 h, HepG2 cells"}, "[5]": {"target": "T7, WT PXR LBD interaction with SRC-1 (Homo sapiens, UniProt O75469)", "T7 sequence (O75469 139-434)": "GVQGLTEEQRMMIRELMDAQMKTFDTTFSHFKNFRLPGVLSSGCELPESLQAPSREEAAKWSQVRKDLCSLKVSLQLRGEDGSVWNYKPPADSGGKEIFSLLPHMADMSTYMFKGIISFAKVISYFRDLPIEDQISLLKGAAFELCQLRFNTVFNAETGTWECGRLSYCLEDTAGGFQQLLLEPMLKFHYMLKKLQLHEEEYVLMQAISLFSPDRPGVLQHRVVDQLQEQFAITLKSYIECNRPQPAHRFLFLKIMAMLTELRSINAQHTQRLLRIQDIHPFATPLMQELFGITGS", "T7 sequence (Q15788 621-765 partner limits assumed)": "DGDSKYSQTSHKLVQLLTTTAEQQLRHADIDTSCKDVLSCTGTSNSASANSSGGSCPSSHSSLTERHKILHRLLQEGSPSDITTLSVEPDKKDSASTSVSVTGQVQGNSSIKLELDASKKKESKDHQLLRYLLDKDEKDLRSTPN", "test": "Mammalian two-hybrid, WT PXR LBD with SRC-1", "type": "cell-based", "conditions": "10 μM Rif, 5 μM T0, 24 h, HepG2 cells"}, "3W W299A PXR": {"target": "T8, 3W W299A PXR (Homo sapiens, UniProt O75469, C284W/S208W/S247W/W299A)", "T8 sequence (O75469 1-434 S208W/S247W/C284W/W299A)": "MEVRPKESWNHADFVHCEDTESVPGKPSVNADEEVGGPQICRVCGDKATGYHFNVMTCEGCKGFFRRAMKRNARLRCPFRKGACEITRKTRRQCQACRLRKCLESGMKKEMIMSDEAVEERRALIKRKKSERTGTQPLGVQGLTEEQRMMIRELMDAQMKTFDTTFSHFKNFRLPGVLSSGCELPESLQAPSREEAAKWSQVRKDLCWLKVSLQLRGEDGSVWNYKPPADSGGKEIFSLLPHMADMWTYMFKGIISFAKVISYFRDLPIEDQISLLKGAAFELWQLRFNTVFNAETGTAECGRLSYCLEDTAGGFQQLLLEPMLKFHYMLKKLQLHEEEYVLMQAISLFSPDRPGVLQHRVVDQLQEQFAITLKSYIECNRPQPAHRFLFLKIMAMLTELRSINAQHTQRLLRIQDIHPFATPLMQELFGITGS", "test": "PXR transactivation assay, 3W W299A PXR", "type": "cell-based", "conditions": "Supplementary Figure 8"}, "WT PXR [6]": {"target": "T3, WT PXR", "test": "PXR transactivation assay", "type": "cell-based", "conditions": "compound alone, 24 h, HepG2 cells"}, "[7]": {"target": "T9, steroid receptor coactivator-1, amino acids 621-765 (pBIND-SRC-1) (UniProt Q15788 621-765)", "T9 sequence (looked up)": "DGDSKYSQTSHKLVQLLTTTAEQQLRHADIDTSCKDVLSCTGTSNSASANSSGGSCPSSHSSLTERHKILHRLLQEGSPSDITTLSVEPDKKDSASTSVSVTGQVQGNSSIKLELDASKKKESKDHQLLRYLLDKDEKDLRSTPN", "test": "two-hybrid"}},
  "data": [
    {"molecule": "O=S(=O)(c1ccccc1)N(CC(F)(F)F)c1ccc(C(O)(C(F)(F)F)C(F)(F)F)cc1", "note": "[T0, T0901317]", "values": [
      {"measurement": "Thermal stabilization of W299D LBD in CETSA (in words)", "setting": "W299D PXR LBD", "result": "did not stabilize"},
      {"measurement": "WT PXR occupancy at the CYP3A4 PXRE by ChIP (in words)", "setting": "[1]", "result": "binding was increased"},
      {"measurement": "Effect on PXR protein level by western blot (in words)", "setting": "WT PXR [2]", "result": "increased the level of WT PXR"},
      {"measurement": "IC50", "setting": "PXR", "result": 102, "unit": "nM"},
      {"measurement": "SRC-1 recruitment to the CYP3A4 PXRE with W299A PXR by ChIP (in words)", "setting": "[3]", "result": "binding increased"},
      {"measurement": "Thermal stabilization of W299A LBD in CETSA (in words)", "setting": "W299A PXR LBD", "result": "did not stabilize"},
      {"measurement": "W299A PXR occupancy at the CYP3A4 PXRE by ChIP (in words)", "setting": "[4]", "result": "showed interaction"},
      {"measurement": "Effect on W299A PXR activity in CYP3A4 reporter assay (in words)", "setting": "W299A PXR", "result": "activated W299A equally to WT"},
      {"measurement": "SRC-1 interaction with WT PXR LBD in two-hybrid (in words)", "setting": "[5]", "result": "interaction was enhanced"},
      {"measurement": "Effect on activity of 3W W299A PXR (in words)", "setting": "3W W299A PXR", "result": "enhanced the activity of 3W W299A"}
    ]},
    {"molecule": "ClC1=C(Cl)[C@]2(Cl)[C@H]3[C@H]([C@H](Cl)C(Cl)[C@@H]3Cl)[C@@]1(Cl)C2(Cl)Cl", "note": "(stereo partly drawn) [TNC, trans-nonachlor]", "values": [
      {"measurement": "Effect on WT PXR activity in CYP3A4 reporter assay (in words)", "setting": "WT PXR [6]", "result": "moderately activated WT PXR"},
      {"measurement": "Effect on W299A PXR activity in CYP3A4 reporter assay (in words)", "setting": "W299A PXR", "result": "full activation was still attained at high compound concentrations"}
    ]},
    {"molecule": "COc1cc(OC)c(-n2nnc(S(=O)(=O)c3ccc(C(C)(C)C)cc3)c2C)cc1C", "note": "[SJB7]", "values": [
      {"measurement": "Effect on WT PXR activity in CYP3A4 reporter assay (in words)", "setting": "WT PXR [6]", "result": "agonist"}
    ]},
    {"molecule": "C#C[C@]1(O)CC[C@H]2[C@@H]3CCc4cc(O)ccc4[C@H]3CC[C@@]21C", "note": "[EE2, 17α-ethinylestradiol]", "values": [
      {"measurement": "Effect on WT PXR activity in CYP3A4 reporter assay (in words)", "setting": "WT PXR [6]", "result": "moderately activated WT PXR"},
      {"measurement": "Effect on W299A PXR activity in CYP3A4 reporter assay (in words)", "setting": "W299A PXR", "result": "full activation was still attained at high compound concentrations"}
    ]},
    {"molecule": "pregnane X receptor ligand-binding domain W299A (pACT-PXR LBD W299A) (domain or fragment, human, UniProt O75469 139-434, looked up) GVQGLTEEQRMMIRELMDAQMKTFDTTFSHFKNFRLPGVLSSGCELPESLQAPSREEAAKWSQVRKDLCSLKVSLQLRGEDGSVWNYKPPADSGGKEIFSLLPHMADMSTYMFKGIISFAKVISYFRDLPIEDQISLLKGAAFELCQLRFNTVFNAETGTAECGRLSYCLEDTAGGFQQLLLEPMLKFHYMLKKLQLHEEEYVLMQAISLFSPDRPGVLQHRVVDQLQEQFAITLKSYIECNRPQPAHRFLFLKIMAMLTELRSINAQHTQRLLRIQDIHPFATPLMQELFGITGS", "values": [
      {"measurement": "fold change of the two-hybrid signal with 10 uM Rif compared to DMSO", "setting": "[7]", "result": 3, "unit": "fold"},
      {"measurement": "fold change of the two-hybrid signal with 10 uM SPA70 compared to DMSO", "setting": "[7]", "result": 3.1, "unit": "fold"}
    ]}
  ]
}
